pEC50, pKi: −log10 of the molar value. “Also recorded” adds a separate entry of the source. Where a name gives a salt, the structure may show the parent alone.
Key:
myenteric neurons = settings: cited from earlier work
5-HT4 receptor [1] = settings: mouse embryonic colliculi neurons; cited from earlier work
5-HT4 receptor [2] = target: T1, 5-HT4 receptor (Rattus norvegicus, UniProt Q62758); experiment: cell-based; settings: carbachol (3 μM)-contracted rat TMM, 37° C., tissues from 5 rats; read-out: 5-HT4 Agonism (Rat TMM) In Vitro Assay: EC50 values
T1 construct: One 2 cm segment of intrathoracic esophagus proximal to the diaphragm was removed from male rats; from tissue; host or cells: rat intrathoracic oesophagus, inner tunica muscularis mucosae
Procedure: (§1) 5-HT4 agonist activity was determined in the in vitro rat tunica muscularis mucosae (TMM) assay described herein. (Baxter et al., Naunyn Schmied Arch. Pharmacol, 1991, 343, 439). […] One with skill in the art could determine the activity of the compounds of the present invention using the methodology of these assays, described herein, without undue experimentation.
Schmied. Arch. Pharmacol. 343, 439 (1991)]. Agonist activity was determined utilizing relaxation of carbachol-contracted rat tunica muscularis mucosae (TMM). One 2 cm segment of intrathoracic esophagus proximal to the diaphragm was removed from male rats, weighing approximately 300 gm, and the outer muscle layers removed. The inner tunica muscularis mucosa was mounted under 0.2-0.3 g of tension in a tissue bath containing oxygenated Tyrode's solution at 37° C. […] Following a 30 minute equilibrium period, tissues were isometrically contracted with carbachol (3 μM) to obtain a tonic contraction. A stable plateau was obtained within 20 minutes when test compound was added cumulatively to relax the muscle strip. EC50 values were obtained for each agonist in tissues from 5 rats.

antroduodenal motility = settings: dogs, cited from earlier work
[3] = tested on: guinea pig stomach strips; settings: in vitro; cited from earlier work
gastric emptying = settings: in vivo; cited from earlier work
5-HT3 receptor = target: T2, 5-HT3 receptor (Rattus norvegicus, UniProt P35563); experiment: 5-HT3 radioligand receptor binding, [3H]-GR65630, rat brain cortex membranes
T2 construct: Brain cortices were obtained from male rats and a membrane fraction prepared by standard techniques; from tissue; host or cells: rat brain cortex membranes
T2 sequence (P35563 24-483): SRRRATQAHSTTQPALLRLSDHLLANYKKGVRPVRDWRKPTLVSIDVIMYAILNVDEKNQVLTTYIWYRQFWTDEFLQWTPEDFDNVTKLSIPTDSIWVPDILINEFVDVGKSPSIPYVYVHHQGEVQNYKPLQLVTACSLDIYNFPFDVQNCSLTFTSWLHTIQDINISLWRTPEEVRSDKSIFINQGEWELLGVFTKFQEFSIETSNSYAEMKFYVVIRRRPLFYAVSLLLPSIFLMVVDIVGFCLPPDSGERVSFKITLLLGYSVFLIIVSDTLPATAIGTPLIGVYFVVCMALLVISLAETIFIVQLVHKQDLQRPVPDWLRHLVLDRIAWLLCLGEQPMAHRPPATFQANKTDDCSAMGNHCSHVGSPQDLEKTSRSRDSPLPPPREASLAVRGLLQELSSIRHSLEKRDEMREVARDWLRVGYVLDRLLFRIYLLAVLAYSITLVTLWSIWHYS
Procedure: as §1
Procedure: GR65630 binds to the 5-HT3 receptor. Brain cortices were obtained from male rats and a membrane fraction prepared by standard techniques. 0.04 mg of membrane prep was incubated with 0.2 nM [^3 H]-GR65630 for 66 minutes at 22° C. […] Membranes were filtered and washed 3 times and the filters were counted to determine [^3 H]-GR65630 specifically bound. [Kilpatrick GJ, Jones BJ and Tyers MB, Identification and Distribution of 5-HT3 Receptors in Rat Brain Using Radioligand Binding Assay, Nature 330, 746-748 (1987)].

5-HT4 receptors = settings: cited from earlier work
GI transit [4] = settings: mice; cited from earlier work
5-HT3 = settings: in vivo; cited from earlier work
GI transit [5] = settings: cited from earlier work

T1 sequence (Q62758 whole entry): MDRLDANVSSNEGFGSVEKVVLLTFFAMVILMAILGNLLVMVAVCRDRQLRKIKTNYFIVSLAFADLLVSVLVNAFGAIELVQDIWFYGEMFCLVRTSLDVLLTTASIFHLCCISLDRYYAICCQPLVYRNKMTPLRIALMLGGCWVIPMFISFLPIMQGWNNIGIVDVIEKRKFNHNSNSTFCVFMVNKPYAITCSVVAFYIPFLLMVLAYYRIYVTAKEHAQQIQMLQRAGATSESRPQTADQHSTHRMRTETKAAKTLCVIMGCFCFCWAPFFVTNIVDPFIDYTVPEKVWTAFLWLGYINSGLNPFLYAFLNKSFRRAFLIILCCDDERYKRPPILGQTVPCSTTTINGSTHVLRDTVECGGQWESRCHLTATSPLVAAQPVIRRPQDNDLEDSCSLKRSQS

COc1cc(N)c(Cl)cc1C(=O)NC1CCN(CCCOc2ccc(F)cc2)CC1OC (stereo not shown) [Cisapride]
depolarization of myenteric neurons (myenteric neurons): depolarize myenteric neurons
prokinetic activity correlated with agonist activity at 5-HT4 receptor (5-HT4 receptor [1]): correlate with agonist activity at a novel 5-HT4 receptor subtype
pEC50 (5-HT4 receptor [2]): 7.26
antroduodenal motility (antroduodenal motility): enhanced antroduodenal motility in dogs

CN1[C@@H]2CC[C@H]1C[C@@H](OC(=O)c1c[nH]c3ccccc13)C2 [ICS 205,930]
guinea pig stomach strip contraction [3]: enhanced guinea pig stomach muscle strip contraction in vitro
gastric emptying (gastric emptying): increases in gastric emptying rates in vivo; also recorded: enhanced gastric emptying
effect on responses to cisapride (antroduodenal motility; coadministered with cisapride): did not affect the responses to cisapride when the agents were coadministered

COc1cc(N)c(Cl)cc1C(=O)NC[C@H]1[C@@H]2C[C@@H]3C[C@H]1CN3C2 [Example 14, Syn-4-amino-5-chloro-N-(hexahydro-2,6-methano-1H-pyrrolizin-8-ylmethyl)-2-methoxybenzamide, monohydrochloride]
pKi (5-HT3 receptor): 8.96
pEC50 (5-HT4 receptor [2]): 6.38

COc1cc(N)c(Cl)cc1C(=O)NC1CCN2CCCC1C2 (stereo not shown) [BRL-24924]
depolarization of myenteric neurons (myenteric neurons): depolarize myenteric neurons
prokinetic activity correlated with agonist activity at 5-HT4 receptor (5-HT4 receptor [1]): correlate with agonist activity at a novel 5-HT4 receptor subtype
peristaltic reflex mediated through 5-HT4 receptors (5-HT4 receptors): mediated through agonism at 5-HT4 receptors

COc1cc(N)c(Cl)cc1C(=O)NC[C@@H]1[C@@H]2C[C@@H]3C[C@H]1CN3C2 [Example 11, Anti-4-amino-5-chloro-N-(hexahydro-2,6-methano-1H-pyrrolizin-8-ylmethyl)-2-methoxybenzamide, monohydrochloride]
pEC50 (5-HT4 receptor [2]): 6.18

COc1cc(NC(C)=O)c(Cl)cc1C(=O)NCC1C2CC3CC1CN3C2 (stereo not shown) [Example 7, 4-(Acetylamino)-5-chloro-N-(hexahydro-2,6-methano-1H-pyrrolizin-8-ylmethyl)-2-methoxybenzamide, hydrochloride]
pEC50 (5-HT4 receptor [2]): ≤ 5.00

COc1cc(N)c(Cl)cc1C(=O)N[C@H]1[C@@H]2C[C@@H]3C[C@H]1CN3C2 [Example 4, Syn-4-amino-5-chloro-N-(hexahydro-2,6-methano-1H-pyrrolizin-8-yl)-2-methoxybenzamide, hydrochloride]
pKi (5-HT3 receptor): 7.66
pEC50 (5-HT4 receptor [2]): 6.15

COc1cc(NC(C)=O)c(Cl)cc1C(=O)N[C@@H]1[C@@H]2C[C@@H]3C[C@H]1CN3C2 [Example 2, Anti-4-(acetylamino)-5-chloro-N-(hexahydro-2,6-methano-1H-pyrrolizin-8-yl)-2-methoxybenzamide]
pEC50 (5-HT4 receptor [2]): < 5.00

CN1[C@@H]2CC[C@H]1C[C@@H](OC(=O)c1cc(Cl)cc(Cl)c1)C2 [MDL 72222]
guinea pig stomach strip contraction [3]: enhanced guinea pig stomach muscle strip contraction in vitro
gastric emptying (gastric emptying): increases in gastric emptying rates in vivo

COc1cc(N)c(Cl)cc1C(=O)OC1C2CC3CC1CN3C2 (stereo not shown) [Example 13, (Hexahydro-2,6-methano-1H-pyrrolizin-8-yl) 4-amino-5-chloro-2-methoxybenzoate]
pEC50 (5-HT4 receptor [2]): 6.66

COc1cc(N)c(Cl)cc1C(=O)N[C@@H]1[C@@H]2C[C@@H]3C[C@H]1CN3C2 [Example 5, Anti-4-amino-5-chloro-N-(hexahydro-2,6-methano-1H-pyrrolizin-8-yl)-2-methoxybenzamide]
pEC50 (5-HT4 receptor [2]): 6.15

Cc1nc[nH]c1CCC(=O)c1cn(C)c2ccccc12 [GR65630]
Bmax (5-HT3 receptor; [3H]-GR65630, rat brain cortex membranes): 154 fmol/mg protein
% Specific Binding (5-HT3 receptor; [3H]-GR65630, non-specific binding in presence of 1 uM ICS 205,930): 70%

Cc1nccn1CC1CCc2c(c3ccccc3n2C)C1=O.Cl.O.O (stereo not shown) [SN-307]
transit of a charcoal meal (GI transit [4]): enhanced transit of a charcoal meal in mice

CCN(CC)CCNC(=O)c1cc(Cl)c(N)cc1OC [metoclopramide]
guinea pig stomach strip contraction [3]: enhanced electrical-field stimulated contractions in guinea pig stomach strips; also recorded: enhanced guinea pig stomach muscle strip contraction in vitro
5-HT3 mediated Bezold Jarisch reflex (5-HT3): blocks the 5-HT3 mediated Bezold Jarisch reflex
gastric emptying (gastric emptying): increases in gastric emptying rates in vivo

COc1cc(N)c(Cl)cc1C(=O)NC1CN2CCC1CC2 (stereo not shown) [zacopride]
gastric emptying (gastric emptying): enhanced gastric emptying

COc1cc(N)c(Cl)cc1C(=O)NCC1C2CC3CC1CN3C2 (stereo not shown) [Example 9, 4-Amino-5-chloro-N-(hexahydro,2,6-methano-1H-pyrrolizin-8-ylmethyl)-2-methoxybenzamide, monobydrochloride]
pEC50 (5-HT4 receptor [2]): 6.40

COc1cc(N)c(Cl)cc1C(=O)N[C@@H]1[C@@H]2C[C@@H]3C[C@H]1CN3C2 [Example 6, Anti-4-amino-5-chloro-N-(hexahydro-2,6-methano-1H pyrrolizin-8-yl)-2-methoxybenzamide, monohydrochloride]
pKi (5-HT3 receptor): 8.42
pEC50 (5-HT4 receptor [2]): 6.42

COc1cc(N)c(Cl)cc1C(=O)N[C@H]1[C@@H]2C[C@@H]3C[C@H]1CN3C2 [Example 3, Syn-4-amino-5-chloro-N-(hexahydro,2,6-methano-1H-pyrrolizin-8-yl)-2-methoxybenzamide]
pEC50 (5-HT4 receptor [2]): 5.65

NCCc1c[nH]c2ccc(O)cc12 [Serotonin, 5-hydroxytryptamine]
peristaltic reflex mediated through 5-HT4 receptors (5-HT4 receptors): mediated through agonism at 5-HT4 receptors

COc1cc(NC(C)=O)c(Cl)cc1C(=O)N[C@H]1[C@@H]2C[C@@H]3C[C@H]1CN3C2 [Example 1, Syn-4,(acetylamino)-5-chloro-N-(hexahydro-2,6-methano-1H-pyrrolizin8-yl)-2-methoxybenzamide]
pEC50 (5-HT4 receptor [2]): 5.48

Cc1nccn1CC1CCc2c(c3ccccc3n2C)C1=O (stereo not shown) [GR38032]
GI transit / colonic transit (GI transit [5]; man (S. Gore et al.)): not only failed to accelerate GI transit, but in fact slowed colonic transit in man
small intestinal transit times or mouth-to-cecum transit times (GI transit [5]; man (Talley et al.)): did not alter small intestinal transit times or mouth-to-cecumtransit times
gastric emptying (gastric emptying): enhanced gastric emptying
